Consider 15 molecules from patent US8163724B2, “Glucocorticosteroids, processes for their preparation, pharmaceutical compositions containing them and their use in therapy” (AstraZeneca AB, priority 2007, dated 2012).

For the assay, the target named is T1, recombinant human GR (Homo sapiens, UniProt P04150).
T1 construct: purchased Panvera/Invitrogen P2812 (kit P2893)
T1 sequence (P04150 1-777): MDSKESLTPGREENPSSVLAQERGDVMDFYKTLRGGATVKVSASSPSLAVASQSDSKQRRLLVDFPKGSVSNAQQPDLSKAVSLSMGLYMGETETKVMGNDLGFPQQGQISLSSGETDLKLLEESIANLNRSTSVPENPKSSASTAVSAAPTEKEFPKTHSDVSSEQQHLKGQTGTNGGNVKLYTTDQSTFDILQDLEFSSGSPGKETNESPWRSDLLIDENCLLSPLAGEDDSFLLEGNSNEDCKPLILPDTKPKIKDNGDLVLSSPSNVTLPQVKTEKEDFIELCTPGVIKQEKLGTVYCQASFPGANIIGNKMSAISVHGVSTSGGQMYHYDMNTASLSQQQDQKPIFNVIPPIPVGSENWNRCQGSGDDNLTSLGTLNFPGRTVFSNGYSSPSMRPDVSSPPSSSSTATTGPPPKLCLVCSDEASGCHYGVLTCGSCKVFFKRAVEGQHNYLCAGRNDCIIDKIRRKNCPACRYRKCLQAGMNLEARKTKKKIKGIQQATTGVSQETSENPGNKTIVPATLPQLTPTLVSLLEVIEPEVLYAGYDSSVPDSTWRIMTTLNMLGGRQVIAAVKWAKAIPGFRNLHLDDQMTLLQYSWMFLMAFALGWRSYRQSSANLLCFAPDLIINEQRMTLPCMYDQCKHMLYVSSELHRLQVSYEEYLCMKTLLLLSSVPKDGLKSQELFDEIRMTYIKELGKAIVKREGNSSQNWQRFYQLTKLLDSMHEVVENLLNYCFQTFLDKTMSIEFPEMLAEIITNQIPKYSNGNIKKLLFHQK
Nature of the assay: Human Glucocorticoid Receptor (GR) Assay (fluorescence polarization, Panvera/Invitrogen kit). The format is binding. Particulars: fluorescence polarization; GS Red tracer; 2 hours at room temperature; 100% control 10 μM Dexamethasone; read-out: Inhibition of GR binding, IC50. In short, it runs like this:
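Fluorescence polarization competition with recombinant GR and GS Red fluorescent ligand plus stabilizing peptide and DTT in potassium phosphate/sodium molybdate/EDTA buffer with DMSO. Incubated 2 hours at room temperature in the dark; 0% control DMSO, 100% control 10 μM dexamethasone.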
(In general: Polarisation of emitted light reports the rotation of a fluorescent probe.)
As to `C[C@]12Cc3cnn(-c4ccc(F)nc4)c3C=C1CC[C@@H]1[C@@H]2[C@@H](O)C[C@@]2(C)[C@H]1CC[C@]2(OC(=O)C1CC1)C(=O)SCCO` [Example 155, (1R,3aS,3bS,10aR,10bS,11S,12aS)-7-(6-Fluoropyridin-3-yl)-11-hydroxy-1-{[(2-hydroxyethyl)sulfanyl]carbonyl}-10a,12a-dimethyl-1,2,3,3a,3b,4,5,7,10,10a,10b,11,12,12a-tetradecahydrocyclopenta[5,6]naphtho[1,2-f]indazol-1-yl cyclopropanecarboxylate], the half-inhibitory concentration (IC50) was 1.9 nM.

Turning to `COCC(=O)O[C@]1(C(=O)SCC#N)CC[C@H]2[C@@H]3CCC4=Cc5c(cnn5-c5ccc(F)nc5)C[C@]4(C)[C@H]3[C@@H](O)C[C@@]21C` [Example 156, (1R,3aS,3bS,10aR,10bS,11S,12aS)-1-{[(Cyanomethyl)sulfanyl]carbonyl}-7-(6-fluoropyridin-3-yl)-11-hydroxy-10a,12a-dimethyl-1,2,3,3a,3b,4,5,7,10,10a,10b,11,12,12a-tetradecahydrocyclopenta[5,6]naphtho[1,2-f]indazol-1-yl methoxyacetate], the IC50 was found to be 1.3 nM.

Consider `COCC(=O)O[C@]1(C(=O)SC)CC[C@H]2[C@@H]3CCC4=Cc5c(cnn5-c5ccc(F)nc5)C[C@]4(C)[C@H]3[C@@H](O)C[C@@]21C` [Example 157, (1R,3aS,3bS,10aR,10bS,11S,12aS)-7-(6-Fluoropyridin-3-yl)-11-hydroxy-10a,12a-dimethyl-1-[(methylsulfanyl)carbonyl]-1,2,3,3a,3b,4,5,7,10,10a,10b,11,12,12a-tetradecahydrocyclopenta[5,6]naphtho[1,2-f]indazol-1-yl Methoxyacetate], for which the half-maximal inhibitory concentration (IC50) worked out at 1.1 nM.

As for `COCSC(=O)[C@@]1(OC(=O)COC)CC[C@H]2[C@@H]3CCC4=Cc5c(cnn5-c5ccc(F)nc5)C[C@]4(C)[C@H]3[C@@H](O)C[C@@]21C` [Example 158, (1R,3aS,3bS,10aR,10bS,11S,12aS)-7-(6-Fluoropyridin-3-yl)-11-hydroxy-1-{[(methoxymethyl)sulfanyl]carbonyl}-10a,12a-dimethyl-1,2,3,3a,3b,4,5,7,10,10a,10b,11,12,12a-tetradecahydrocyclopenta[5,6]naphtho[1,2-f]indazol-1-yl methoxyacetate], the concentration for half-maximal inhibition (IC50) is 2.4 nM.

Turning to `COCC(=O)O[C@]1(C(=O)SCCO)CC[C@H]2[C@@H]3CCC4=Cc5c(cnn5-c5ccc(F)nc5)C[C@]4(C)[C@H]3[C@@H](O)C[C@@]21C` [Example 159, (1R,3aS,3bS,10aR,10bS,11S,12aS)-7-(6-Fluoropyridin-3-yl)-11-hydroxy-1-{[(2-hydroxyethyl)sulfanyl]carbonyl}-10a,12a-dimethyl-1,2,3,3a,3b,4,5,7,10,10b,11,12,12a-tetradecahydrocyclopenta[5,6]naphtho[1,2-f]indazol-1-yl methoxyacetate], the IC50 turned out to be 3.6 nM.

Turning to `C[C@]12Cc3cnn(-c4ccc(F)nc4)c3C=C1CC[C@@H]1[C@@H]2[C@@H](O)C[C@@]2(C)[C@H]1CC[C@]2(OC(=O)c1cocn1)C(=O)SCC#N` [Example 160, (1R,3aS,3bS,10aR,10bS,11S,12aS)-1-{[(Cyanomethyl)sulfanyl]carbonyl}-7-(6-fluoropyridin-3-yl)-11-hydroxy-10a,12a-dimethyl-1,2,3,3a,3b,4,5,7,10,10a,10b,11,12,12a-tetradecahydrocyclopenta[5,6]naphtho[1,2-f]indazol-1-yl 1,3-oxazole-4-carboxylate], the IC50 is 2.1 nM.

With `CSC(=O)[C@@]1(OC(=O)c2cocn2)CC[C@H]2[C@@H]3CCC4=Cc5c(cnn5-c5ccc(F)nc5)C[C@]4(C)[C@H]3[C@@H](O)C[C@@]21C` [Example 161, (1R,3aS,3bS,10aR,10bS,11S,12aS)-7-(6-Fluoropyridin-3-yl)-11-hydroxy-10a,12a-dimethyl-1-[(methylsulfanyl)carbonyl]-1,2,3,3a,3b,4,5,7,10,10a,10b,11,12,12a-tetradecahydrocyclopenta[5,6]naphtho[1,2-f]indazol-1-yl 1,3-oxazole-4-carboxylate], the concentration for half-maximal inhibition (IC50) was 1.3 nM.

In the case of `C[C@]12Cc3cnn(-c4ccc(F)nc4)c3C=C1CC[C@@H]1[C@@H]2[C@@H](O)C[C@@]2(C)[C@H]1CC[C@]2(OC(=O)c1cocn1)C(=O)SCCO` [Example 162, (1R,3aS,3bS,10aR,10bS,11S,12aS)-7-(6-Fluoropyridin-3-yl)-11-hydroxy-1-{[(2-hydroxyethyl)sulfanyl]carbonyl}-10a,12a-dimethyl-1,2,3,3a,3b,4,5,7,10,10a,10b,11,12,12a-tetradecahydrocyclopenta[5,6]naphtho[1,2-f]indazol-1-yl 1,3-oxazole-4-carboxylate], the IC50 is 1.8 nM.

Take `COCSC(=O)[C@@]1(OC(=O)c2cocn2)CC[C@H]2[C@@H]3CCC4=Cc5c(cnn5-c5ccc(F)nc5)C[C@]4(C)[C@H]3[C@@H](O)C[C@@]21C` [Example 163, (1R,3aS,3bS,10aR,10bS,11S,12aS)-7-(6-Fluoropyridin-3-yl)-11-hydroxy-1-{[(methoxymethyl)sulfanyl]carbonyl}-10a,12a-dimethyl-1,2,3,3a,3b,4,5,7,10,10a,10b,11,12,12a-tetradecahydrocyclopenta[5,6]naphtho[1,2-f]indazol-1-yl 1,3-oxazole-4-carboxylate]: the IC50 was 1.7 nM.

`C[C@]12Cc3cnn(-c4ccc(F)nc4)c3C=C1CC[C@@H]1[C@@H]2[C@@H](O)C[C@@]2(C)[C@H]1CC[C@]2(O)C(=O)SCC#N` [Example 164, S-(Cyanomethyl)(1R,3aS,3bS,10aR,10bS,11S,12aS)-7-(6-fluoropyridin-3-yl)-1,11-dihydroxy-10a,12a-dimethyl-1,2,3,3a,3b,4,5,7,10,10a,10b,11,12,12a-tetradecahydrocyclopenta[5,6]naphtho[1,2-f]indazole-1-carbothioate]: the IC50 was 1.4 nM.

Consider `CSC(=O)[C@@]1(O)CC[C@H]2[C@@H]3CCC4=Cc5c(cnn5-c5ccc(F)nc5)C[C@]4(C)[C@H]3[C@@H](O)C[C@@]21C` [Example 165, S-Methyl(1R,3aS,3bS,10aR,10bS,11S,12aS)-7-(6-fluoropyridin-3-yl)-1,11-dihydroxy-10a,12a-dimethyl-1,2,3,3a,3b,4,5,7,10,10a,10b,11,12,12a-tetradecahydrocyclopenta[5,6]naphtho[1,2-f]indazole-1-carbothioate], for which the half-inhibitory concentration (IC50) is 3.8 nM.

Take `C[C@]12Cc3cnn(-c4ccc(F)nc4)c3C=C1CC[C@@H]1[C@@H]2[C@@H](O)C[C@@]2(C)[C@H]1CC[C@]2(OC(=O)c1ccco1)C(=O)SCC#N` [Example 166, (1R,3aS,3bS,10aR,10bS,11S,12aS)-1-{[(Cyanomethyl)sulfanyl]carbonyl}-7-(6-fluoropyridin-3-yl)-11-hydroxy-10a,12a-dimethyl-1,2,3,3a,3b,4,5,7,10,10a,10b,11,12,12a-tetradecahydrocyclopenta[5,6]naphtho[1,2-f]indazol-1-yl furan-2-carboxylate]: the IC50 stood at 5.8 nM.

Consider `CSC(=O)[C@@]1(OC(=O)c2ccco2)CC[C@H]2[C@@H]3CCC4=Cc5c(cnn5-c5ccc(F)nc5)C[C@]4(C)[C@H]3[C@@H](O)C[C@@]21C` [Example 167, (1R,3aS,3bS,10aR,10bS,11S,12aS)-7-(6-Fluoropyridin-3-yl)-11-hydroxy-10a,12a-dimethyl-1-[(methylsulfanyl)carbonyl]-1,2,3,3a,3b,4,5,7,10,10a,10b,11,12,12a-tetradecahydrocyclopenta[5,6]naphtho[1,2-f]indazol-1-yl furan-2-carboxylate], for which the IC50 was 5.6 nM.

Consider `C[C@]12Cc3cnn(-c4ccc(F)nc4)c3C=C1CC[C@@H]1[C@@H]2[C@@H](O)C[C@@]2(C)[C@H]1CC[C@]2(OC(=O)c1ccco1)C(=O)SCCO` [Example 168, (1R,3aS,3bS,10aR,10bS,11S,12aS)-7-(6-Fluoropyridin-3-yl)-11-hydroxy-1-{[(2-hydroxyethyl)sulfanyl]carbonyl}-10a,12a-dimethyl-1,2,3,3a,3b,4,5,7,10,10a,10b,11,12,12a-tetradecahydrocyclopenta[5,6]naphtho[1,2-f]indazol-1-yl furan-2-carboxylate], for which the IC50 turned out to be 5.3 nM.

Take `CCC(=O)O[C@]1(C(=O)SCC#N)CC[C@H]2[C@@H]3CCC4=Cc5c(cnn5-c5ccc(F)c(C(=O)SCC#N)c5)C[C@]4(C)[C@H]3[C@@H](O)C[C@@]21C` [Example 174, (1R,3aS,3bS,10aR,10bS,11S,12aS)-1-{[(Cyanomethyl)sulfanyl]carbonyl}-7-(3-{[(cyanomethyl)sulfanyl]carbonyl}-4-fluorophenyl)-11-hydroxy-10a,12a-dimethyl-1,2,3,3a,3b,4,5,7,10,10a,10,12,12a-tetradecahydrocyclopenta[5,6]naphtho[1,2-f]indazol-1-yl propanoate]: the 50% inhibitory concentration (IC50) was determined as 34 nM.

By IC50 is commonly meant the concentration needed to halve the response being measured.
